The results in this text go back to ChEMBL document CHEMBL4732258, “Pyxinol bearing amino acid residues: Easily achievable and promising modulators of P-glycoprotein-mediated multidrug resistance” (Eur J Med Chem, 2021).

The source made the active and inactive calls. The calls are words filed in the database; no cut-off is given here.

Data set [1] in a line: Cytotoxicity against human KBV cells assessed as cell viability at 10 uM incubated for 72 hrs by MTT assay. Format: cell-based. Conditions: read-out: Activity.
The subject of data set [2] is KBV. Kind of data set: Reversal of Pgp-mediated paclitaxel resistance in human KBV cells assessed as cell viability at 10 uM in presence of paclitaxel incubated for 72 hrs by MTT assay. The format is cell-based. To be noted: filed as modulator.
The subject of data set [3] is KBV. Nature of the data set: Reversal of Pgp-mediated paclitaxel resistance in human KBV cells assessed as cell viability at 5 uM in presence of paclitaxel incubated for 72 hrs by MTT assay. The format is cell-based. To be noted: filed as modulator.
The subject of data set [4] is KBV. Kind of data set: Reversal of Pgp-mediated multidrug resistance in human KBV cells assessed as fold change in paclitaxel IC50 at 5 uM after 72 hrs in presence of paclitaxel by MTT assay relative to control. The format is cell-based.
Data set [5] relates to KBV. Kind of data set: Reversal of Pgp-mediated multidrug resistance in human KBV cells assessed as fold change in paclitaxel IC50 at 10 uM after 72 hrs in presence of paclitaxel by MTT assay relative to control. The format is cell-based.
Data set [6] relates to KBV. Kind of data set: Reversal of Pgp-mediated multidrug resistance in human KBV cells assessed as fold change in vincristine IC50 at 5 uM after 72 hrs in presence of vincristine by MTT assay relative to control. Format: cell-based.
The subject of data set [7] is KBV. Kind of data set: Reversal of Pgp-mediated multidrug resistance in human KBV cells assessed as fold change in vincristine IC50 at 10 uM after 72 hrs in presence of vincristine by MTT assay relative to control. The format is cell-based.
Data set [8] deals with KBV. Nature of the data set: Reversal of P-gp mediated drug efflux in human KBV cells assessed as increase in intracellular Rhodamine123 accumulation preincubated for 2 hrs followed by Rh123 addition measured after 0.5 hr by flow cytometry analysis. Format: cell-based. To be noted: filed as modulator, dose 2-10 µM, time 2.5 hrs.
In data set [9] the target is T1, Broad substrate specificity ATP-binding cassette transporter ABCG2 (Homo sapiens, UniProt Q9UNQ0).
T1 sequence (Q9UNQ0 whole entry): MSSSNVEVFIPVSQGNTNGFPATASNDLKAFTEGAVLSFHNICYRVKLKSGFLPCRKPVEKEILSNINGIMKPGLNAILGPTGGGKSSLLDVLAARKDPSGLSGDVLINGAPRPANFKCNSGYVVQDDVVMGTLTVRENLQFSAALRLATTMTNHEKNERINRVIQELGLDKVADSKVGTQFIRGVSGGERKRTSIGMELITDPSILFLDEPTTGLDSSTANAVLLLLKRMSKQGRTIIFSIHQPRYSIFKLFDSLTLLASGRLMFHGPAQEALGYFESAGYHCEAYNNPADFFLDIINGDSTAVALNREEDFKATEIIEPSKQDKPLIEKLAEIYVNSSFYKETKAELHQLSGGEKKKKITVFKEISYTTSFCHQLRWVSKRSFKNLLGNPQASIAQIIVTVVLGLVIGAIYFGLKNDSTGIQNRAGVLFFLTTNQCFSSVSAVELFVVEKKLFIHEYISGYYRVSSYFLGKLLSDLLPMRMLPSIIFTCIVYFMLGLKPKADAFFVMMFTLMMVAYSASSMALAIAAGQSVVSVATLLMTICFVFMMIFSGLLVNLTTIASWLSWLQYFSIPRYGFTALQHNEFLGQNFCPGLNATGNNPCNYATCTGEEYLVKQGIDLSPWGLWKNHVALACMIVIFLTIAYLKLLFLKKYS
Nature of the data set: Reversal of BCRP-mediated multidrug resistance in human KBV cells assessed as fold change in mitoxantrone IC50 at 5 uM after 72 hrs in presence of mitoxantrone by MTT assay. The format is cell-based.

For data set [10], the target named is T1, Broad substrate specificity ATP-binding cassette transporter ABCG2. Nature of the data set: Reversal of BCRP-mediated multidrug resistance in human KBV cells assessed as fold change in mitoxantrone IC50 at 10 uM after 72 hrs in presence of mitoxantrone by MTT assay. Format: cell-based.
Data set [11] is filed under the species Homo sapiens. Kind of data set: Modulation of Pgp-ATPase activity (unknown origin) assessed as fold increase in ATP consumption at 0.5 mM preincubated for 5 mins followed by Mg-ATP addition and measured after 45 mins by microplate reader analysis. To be noted: filed as modulator, time 50.0 min.
Data set [12] concerns KBV. Nature of the data set: Effect on Pgp protein expression in human KBV cells at 5 to 10 uM after 24 hrs by Western blot analysis. The format is functional, cell-based. To be noted: dose 5-10 µM.
A short description of data set [13]: Induction of cell cycle arrest in human KBV cells assessed as accumulation at sub-G1 phase at 10 uM after 24 hrs by PI/RNaseA staining based flow cytometric analysis (reference value: 4.26 +/- 0.35%). Format: functional.
Data set [14] can be described thus: Induction of cell cycle arrest in human KBV cells assessed as accumulation at G1/G0 phase at 10 uM after 24 hrs by PI/RNaseA staining based flow cytometric analysis (reference value: 49.09 +/- 0.35%). Format: functional.
The nature of data set [15]: Induction of cell cycle arrest in human KBV cells assessed as accumulation at S phase at 10 uM after 24 hrs by PI/RNaseA staining based flow cytometric analysis (reference value: 11.32 +/- 0.04%). Format: functional.
Data set [16] is described as follows: Induction of cell cycle arrest in human KBV cells assessed as accumulation at G2/M phase at 10 uM after 24 hrs by PI/RNaseA staining based flow cytometric analysis (reference value: 33.81 +/- 0.57%). The format is functional.
Data set [17] can be described thus: Induction of cell cycle arrest in human KBV cells assessed as accumulation at sub-G1 phase at 5 uM after 24 hrs in presence of 0.1 uM paclitaxel by PI/RNaseA staining based flow cytometric analysis (reference value: 5.83 +/- 0.31%). Format: functional.
Data set [18] in a line: Induction of cell cycle arrest in human KBV cells assessed as accumulation at G1/G0 phase at 5 uM after 24 hrs in presence of 0.1 uM paclitaxel by PI/RNaseA staining based flow cytometric analysis (reference value: 50.74 +/- 0.07%). The format is functional.
The nature of data set [19]: Induction of cell cycle arrest in human KBV cells assessed as accumulation at S phase at 5 uM after 24 hrs in presence of 0.1 uM paclitaxel by PI/RNaseA staining based flow cytometric analysis (reference value: 13.06 +/- 0.39%). The format is functional.
A short description of data set [20]: Induction of cell cycle arrest in human KBV cells assessed as accumulation at G2/M phase at 5 uM after 24 hrs in presence of 0.1 uM paclitaxel by PI/RNaseA staining based flow cytometric analysis (reference value: 28.03 +/- 0.95%). Format: functional.
A short description of data set [21]: Induction of cell cycle arrest in human KBV cells assessed as accumulation at sub-G1 phase at 10 uM after 24 hrs in presence of 0.1 uM paclitaxel by PI/RNaseA staining based flow cytometric analysis (reference value: 5.83 +/- 0.31%). The format is functional.
A short description of data set [22]: Induction of cell cycle arrest in human KBV cells assessed as accumulation at G1/G0 phase at 10 uM after 24 hrs in presence of 0.1 uM paclitaxel by PI/RNaseA staining based flow cytometric analysis (reference value: 50.74 +/- 0.07%). The format is functional.
Data set [23] is described as follows: Induction of cell cycle arrest in human KBV cells assessed as accumulation at S phase at 10 uM after 24 hrs in presence of 0.1 uM paclitaxel by PI/RNaseA staining based flow cytometric analysis (reference value: 13.06 +/- 0.39%). The format is functional.
Data set [24] in a line: Induction of cell cycle arrest in human KBV cells assessed as accumulation at G2/M phase at 10 uM after 24 hrs in presence of 0.1 uM paclitaxel by PI/RNaseA staining based flow cytometric analysis (reference value: 28.03 +/- 0.95%). Format: functional.
Data set [25] is described as follows: Antitumor activity against human KBV cells xenografted model assessed as reduction in tumor weight at 10 mg/kg in presence of 30 mg/kg paclitaxel. Format: functional.

Consider `CSCC[C@H](NC(=O)OC(C)(C)C)C(=O)O[C@H]1CC[C@]2(C)[C@H]3C[C@@H](O)[C@@H]4[C@@H]([C@]5(C)CC[C@H](C(C)(C)O)O5)CC[C@@]4(C)[C@]3(C)CC[C@H]2C1(C)C`, for which, in data set [1], the viability at 72 h, 10 µM amounted to 120%. Also, the Activity was 21% in data set [2]; 26% in data set [3]; “Dose-dependent effect” in data set [8]; 3.31% in data set [13]; 42.81% in [14]; 13.67% in [15]. Also, the Activity worked out at 38.79% in data set [16]; 19.8% in data set [17]; 14% in [18]; 12.94% in data set [19]; 51.66% in data set [20]; 22.66% in data set [21]. Besides, the Activity in [22] stood at 13.75%; in [23], 11.1%; in data set [24] it was 51.06%. The fold change (FC) in data set [4] stood at 25; in data set [5], 59; in data set [6], 3; in data set [7] it was 8; in data set [9], 1.4; in [10], 1.6. Also, the fold change (FC) in data set [11] is 6. For the same molecule, the result in data set [12] was inactive.

Take `CC(C)(C)OC(=O)NCCCCCC(=O)N[C@H]1CC[C@]2(C)[C@H]3C[C@@H](O)[C@@H]4[C@@H]([C@]5(C)CC[C@H](C(C)(C)O)O5)CC[C@@]4(C)[C@]3(C)CC[C@H]2C1(C)C`: in [25], the inhibition in vivo at 10 mg/kg was 53.7%.

Regarding `COc1ccc(CCN(C)CCCC(C#N)(c2ccc(OC)c(OC)c2)C(C)C)cc1OC` (stereo not drawn), the Activity in data set [2] was determined as 28%; in [13] it was 4.69%; in data set [14] it was 51.35%; in data set [15], 11.44%; in data set [16], 31.36%; in [21], 18.47%. The Activity is 11.1% in data set [22], 11.57% in data set [23] and 57.42% in data set [24]. Moreover, the fold change (FC) came to 40 in [5], 16 in data set [7], 1 in data set [10] and 5.6 in data set [11].
